Source: ChEMBL document CHEMBL1124980, “2,4-Dihydro-3H-1,2,4-triazol-3-ones as anticonvulsant agents” (J Med Chem, 1990)
Calls of active or inactive are those of the source. No cut-off for these calls is given here.

Columns and labels:
[1] = (§1) Tested for acute toxicity in mice after intraperitoneal administration; Value ranges from 200-400 mg/kg; assay type: organism-based; conditions: mouse, in vivo, ip
[2] = system: Mus musculus; test: Tested for inhibition of pentylenetetrazole induced seizures in mice; Value is 1/8 of the LD50 range; assay type: functional
[3] = Tested for acute toxicity in mice after intraperitoneal administration; assay type: organism-based; conditions: mouse, in vivo, ip
[4] = system: Mus musculus; test: Tested for inhibition of maximal electroshock -induced seizures in mice; Value is 1/16 of the LD50; assay type: functional
[5] = target: Glutamate NMDA receptor; test: Inhibition of [3H]CPP binding to N-methyl-D-aspartate glutamate receptor of rat cortical or hippocampal membranes; assay type: cell membranes, Membrane
[6] = target: GABA-A receptor; anion channel; test: In vitro binding affinity for GABA-A receptor in rat cortical or hippocampal membranes using [3H]flunitrazepam
[7] = system: Mus musculus; test: Tested for inhibition of pentylenetetrazole induced seizures in mice; Value is 1/16 of the LD50; assay type: functional
[8] = Tested for acute toxicity in mice after intraperitoneal administration; Value ranges from 400-800 mg/kg; assay type: organism-based; conditions: mouse, in vivo, ip
[9] = system: Mus musculus; test: Tested for inhibition of pentylenetetrazole induced seizures in mice; Value is 1/16 of the LD50 range; assay type: functional
[10] = organism: Mus musculus; test: Tested for inhibition of 3-mercaptopropanoic acid induced seizures in mice.; assay type: functional
[11] = organism: Mus musculus; test: Tested for inhibition of quinoline-induced seizures in mice.; assay type: functional
[12] = organism: Mus musculus; test: Tested for inhibition of pentylenetetrazole induced seizures in mice.; assay type: functional
[13] = organism: Mus musculus; test: Tested for inhibition of strychnine-induced seizures in mice.; assay type: functional
[14] = organism: Mus musculus; test: Tested for inhibition of maximal electroshock -induced seizures in mice; Value ranges from 13-25; assay type: functional
[15] = Tested for acute toxicity in mice after intraperitoneal administration; Value ranges from 100-200 mg/kg; assay type: organism-based; conditions: mouse, in vivo, ip
[16] = system: Mus musculus; test: Tested for inhibition of pentylenetetrazole induced seizures in mice; Value is 1/8 of the LD50; assay type: functional
[17] = system: Mus musculus; test: Tested for inhibition of maximal electroshock -induced seizures in mice; Value is 1/4 of the LD50 range; assay type: functional
[18] = system: Mus musculus; test: Tested for inhibition of pentylenetetrazole induced seizures in mice; Value is 1/4 of the LD50 range; assay type: functional
[19] = system: Gerbillinae; test: Tested for its effect on hippocampal neuronal damage in gerbils activity; assay type: functional
[20] = system: Gerbillinae; test: Tested for its effect on Hypoxia induced neuronal damage; assay type: functional
[21] = system: Mus musculus; test: Tested for inhibition of maximal electroshock -induced seizures in mice; Value is 1/8 of the LD50 range; assay type: functional
[22] = organism: Mus musculus; test: Tested for inhibition of maximal electroshock -induced seizures in mice.; assay type: functional
[23] = organism: Mus musculus; test: Tested for inhibition of bicuculline induced seizures in mice.; assay type: functional
[24] = system: Mus musculus; test: Tested for inhibition of quinoline-induced seizures in mice; g = maximum effect, 50% at 20 mg/kg; assay type: functional, organism-based; parameters: dose 20 mg/kg
[25] = system: Mus musculus; test: as §1; assay type: functional; conditions: ip
[26] = organism: Mus musculus; test: Tested for inhibition of pentylenetetrazole induced seizures in mice; Value ranges from 100-200; assay type: functional
[27] = Tested for acute toxicity in mice after intraperitoneal administration; Value ranges from 400-800; assay type: organism-based; conditions: mouse, in vivo, ip

With `CCn1c(O)nnc1-c1cccc(C(F)(F)F)c1` the LD50 [1] was 400 mg/kg and the Activity [2] was 50 mg/kg.
In the case of `Oc1n[nH]c(-c2ccccc2)n1`, the LD50 [3] is reported as > 800 mg/kg.
For `Cn1c(O)nnc1-c1ccc(F)cc1`, the Activity [4] was >50 mg/kg, the IC50 [5] was > 100 µM and the LD50 [3] was > 800 mg/kg. The IC50 [6] was > 100 µM and the Activity [7] was >50 mg/kg.
Molecule `CCn1nc(-c2ccc(Cl)cc2)n(C)c1=O` has an LD50 [8] of 800 mg/kg and an Activity [9] of 50 mg/kg.
For `NC(=O)N1c2ccccc2C=Cc2ccccc21` [CARBAMAZEPINE], the ED50 [10] was 86 mg/kg, the ED50 [11] was 25 mg/kg and the ED50 [12] was > 200 mg/kg. For the same molecule, the ED50 [13] was 61 mg/kg and the ED50 [14] was 25 mg/kg.
`Cn1nc(-c2ccccc2F)n(C)c1=O` showed an LD50 [8] of 800 mg/kg and an Activity [2] of 100 mg/kg.
With `CN[C@H](CC(=O)O)C(=O)O` [N-METHYL-D-ASPARTIC ACID (NMDA)] the IC50 [5] was 6 µM.
For `Cn1nc(-c2ccccc2)n(C)c1=O`, the LD50 [8] was 800 mg/kg and the Activity [2] was 100 mg/kg.
Molecule `Cn1nc(-c2ccccc2)n(C)c1=S` has an LD50 [15] of 200 mg/kg.
For `Cc1ccc(-c2nnc(O)n2C)cc1`, the Activity [16] was >100 mg/kg and the LD50 [3] was > 800 mg/kg.
For `CCn1nc(-c2ccccc2)n(C)c1=O`, the LD50 [8] was 800 mg/kg and the Activity [2] was 100 mg/kg.
With `Cn1nc(-c2ccc(F)cc2)n(C)c1=O` the Activity [17] was 200 mg/kg, the LD50 [8] was 800 mg/kg and the Activity [18] was 200 mg/kg.
In the case of `Cl.c1ccc(C2(N3CCCCC3)CCCCC2)cc1` [PHENCYCLIDINE HYDROCHLORIDE], the Damage score [19] is reported as 1.06 and the Damage score [20] is reported as <1.14.
For `CCn1nc(-c2ccc(Cl)cc2)n(CC)c1=O`, the LD50 [1] was 400 mg/kg, the Activity [21] was 50 mg/kg and the Activity [2] was 50 mg/kg.
In the case of `CCCCOc1cc(-c2nnc(O)n2C)ccc1OC`, the LD50 [15] is reported as 200 mg/kg.
For `COc1ccc(-c2nnc(O)n2C)cc1`, the LD50 [3] was > 800 mg/kg.
In the case of `CCCCOc1cc(-c2nn(C)c(=O)n2C)ccc1OC`, the IC50 [5] is reported as > 100 µM, the LD50 [8] is reported as 800 mg/kg and the Activity [2] is reported as 100 mg/kg. It also gave an IC50 [6] of 33.2 µM.
For `O=C1CN=C(c2ccccc2Cl)c2cc([N+](=O)[O-])ccc2N1` [CLONAZEPAM], the ED50 [10] was 0.2 mg/kg, the ED50 [11] was < 8 mg/kg and the ED50 [12] was 0.06 mg/kg. The ED50 [13] was 2 mg/kg, the ED50 [22] was 50 mg/kg and the ED50 [23] was 0.07 mg/kg.
In the case of `O=C1NC(=O)C(c2ccccc2)(c2ccccc2)N1` [PHENYTOIN], the ED50 [10] is reported as 89 mg/kg, the ED50 [12] is reported as > 32 mg/kg and the ED50 [13] is reported as > 200 mg/kg. The ED50 [24] was “Active”, the ED50 [22] was 26 mg/kg and the ED50 [23] was > 200 mg/kg.
Molecule `CCn1c(-c2ccccc2)nn(C)c1=O` has an Activity [21] of 100 mg/kg, an LD50 [8] of 800 mg/kg and an Activity [18] of 200 mg/kg.
Molecule `CCC1(c2ccccc2)C(=O)NC(=O)NC1=O` [PHENOBARBITAL] has an ED50 [10] of 30 mg/kg, an ED50 [11] of 52 mg/kg and an ED50 [12] of 24 mg/kg. The ED50 [13] was 52 mg/kg, the ED50 [22] was 20 mg/kg and the ED50 [23] was 9 mg/kg.
For `Cn1nc(-c2ccc(Cl)c(Cl)c2)n(C)c1=O`, the LD50 [15] was 200 mg/kg, the Activity [12] was 50 mg/kg and the Activity [22] was 50 mg/kg.
In the case of `Cn1c(O)nnc1-c1cccs1`, the LD50 [1] is reported as 400 mg/kg, the IC50 [5] is reported as > 100 µM and the IC50 [6] is reported as > 100 µM.
For `CCn1c(-c2ccc(Cl)cc2)nn(C)c1=O`, the LD50 [1] was 400 mg/kg, the ED50 [10] was 31 mg/kg and the Damage score [19] was 0.33. The ED50 [11] was 26 mg/kg, the Activity [21] was 50 mg/kg and the IC50 [5] was > 100 µM. It also gave an ED50 [12] of 17 mg/kg, an ED50 [13] of ~101 mg/kg and an ED50 [22] of 48 mg/kg. The Damage score [20] was 0.97, the Activity [9] was 20 mg/kg and the ED50 [23] was 15 mg/kg. The IC50 [6] was > 100 µM.
For `Cn1c(O)nnc1-c1ccccc1`, the Activity [21] was >100 mg/kg, the IC50 [5] was > 100 µM and the Activity [9] was >50 mg/kg. The LD50 [3] was > 800 mg/kg and the IC50 [6] was > 100 µM.
In the case of `CCn1c(O)nnc1-c1ccc(Cl)cc1`, the Damage score [19] is reported as 0.33, the ED50 [11] is reported as ~51 mg/kg and the IC50 [5] is reported as > 100 µM. It also gave an LD50 [25] of 400 mg/kg, a Damage score [20] of 2.64 and an Activity [9] of 25 mg/kg. The IC50 [6] was > 100 µM.
For `CCCn1nc(-c2ccc(Cl)cc2)n(CC)c1=O`, the LD50 [8] was 800 mg/kg.
For `Cn1c(O)nnc1-c1ccccc1F`, the Activity [9] was >50 mg/kg and the LD50 [3] was > 800 mg/kg.
With `Cn1c(O)nnc1-c1ccncc1` the IC50 [5] was > 100 µM, the LD50 [3] was > 800 mg/kg and the IC50 [6] was > 100 µM.
With `CCn1c(O)nnc1-c1ccccc1` the Activity [16] was >100 mg/kg and the LD50 [3] was > 800 mg/kg.
Molecule `Cn1nc(-c2cccs2)n(C)c1=O` has an LD50 [8] of 800 mg/kg.
With `COc1nnc(-c2ccccc2)n1C` the LD50 [3] was > 800 mg/kg.
With `CCn1c(-c2cccc(C(F)(F)F)c2)nn(C)c1=O` the Activity [21] was 100 mg/kg, the IC50 [5] was > 100 µM and the LD50 [8] was 800 mg/kg. For the same molecule, the Activity [9] was 50 mg/kg and the IC50 [6] was > 100 µM.
In the case of `CCCC(CCC)C(=O)O` [VALPROIC ACID], the ED50 [11] is reported as > 256 mg/kg, the ED50 [26] is reported as 200 mg/kg and the ED50 [13] is reported as > 200 mg/kg. For the same molecule, the ED50 [22] was > 200 mg/kg and the ED50 [23] was 28 mg/kg.
In the case of `Cn1c(O)nnc1-c1ccc(Cl)c(Cl)c1`, the LD50 [1] is reported as 400 mg/kg, the Activity [17] is reported as 100 mg/kg and the IC50 [5] is reported as > 100 µM. For the same molecule, the Activity [18] was 100 mg/kg and the IC50 [6] was > 100 µM.
With `COc1ccc(-c2nn(C)c(=O)n2C)cc1` the LD50 [8] was 800 mg/kg.
For `Cc1ccc(-c2nn(C)c(=O)n2C)cc1`, the LD50 [8] was 800 mg/kg.
For `Cn1c(O)nnc1-c1ccc(Cl)cc1`, the Activity [4] was >50 mg/kg, the IC50 [5] was > 100 µM and the LD50 [3] was > 800 mg/kg. The IC50 [6] was > 100 µM and the Activity [7] was >50 mg/kg.
With `CCn1nc(-c2cccs2)n(C)c1=O` the LD50 [8] was 800 mg/kg.
In the case of `Cn1nc(-c2ccccc2)nc1O`, the LD50 [27] is reported as 800 mg/kg and the Activity [2] is reported as 100 mg/kg.
For `Cn1c(O)nnc1-c1ccccc1Cl`, the Damage score [19] was 0.22, the ED50 [11] was ~65 mg/kg and the Activity [21] was 100 mg/kg. For the same molecule, the IC50 [5] was > 100 µM, the LD50 [27] was 800 mg/kg and the Damage score [20] was 2.95. The Activity [9] was 50 mg/kg and the IC50 [6] was > 100 µM.
Molecule `Cn1nc(-c2ccccc2Cl)n(C)c1=O` has an Activity [17] of 200 mg/kg, an LD50 [8] of 800 mg/kg and an Activity [2] of 50 mg/kg.
In the case of `Cn1nc(-c2ccc(Cl)cc2)n(C)c1=O`, the Activity [21] is reported as 100 mg/kg, the IC50 [5] is reported as > 100 µM and the LD50 [8] is reported as 800 mg/kg. For the same molecule, the Activity [9] was 50 mg/kg and the IC50 [6] was > 100 µM.
